Laboratory results from patent US9440948B2, “Nicotine compounds and analogs thereof, synthetic methods of making compounds, and methods of use” (priority 2010, dated 2016).
Entries after “also recorded” stand apart in the source; their conditions may differ. Where two headings read alike, the source gives them in different places.

Legend:
α4β2 receptors = target: T1, α4β2 receptors (Homo sapiens, UniProt P17787+P43681); assay type: cell-based; details: for agonist activity/potency on α4β2 receptors (in words): oocytes expressing α4β2 receptors
T1 construct: expressed in transfected cells; host or cells: Xenopus laevis oocytes (mRNA injection, alpha4:beta2 1:1)
Description: (§1) ACh control applications alternated with test compound applications.

[1] = system: alpha7 receptors relative to alpha4beta2 nAChRs; details: Martin et al., 2004; cited from earlier work
α7 receptors = target: T2, α7 receptors (Homo sapiens, UniProt P36544); assay type: cell-based; details: oocytes expressing α7 receptors
T2 construct: expressed in transfected cells; host or cells: Xenopus laevis oocytes (mRNA injection)
Description: as §1

[2] = system: rat brain nAChRs that bind nicotine with high affinity; details: reference 7; cited from earlier work
[3] = system: α6/α3 chimera/β2 receptors; details: oocytes, FIG. 2.13
Description: Mature female Xenopus laevis were anesthetized by immersion in a 1.5 g/L solution of aminobenzoic acid ethyl ester (MP Biomedicals, LLC, Solon, Ohio) for 30 min. The excised ovary bag was placed into calcium-free Barth's saline (88 mM NaCl, 1 mM KCl, 2.38 mM NaHCO3, 0.82 mM MgSO4, 15 mM HEPES, 0.012 mg/ml tetracycline hydrochloride, pH 7.3+−0.1), opened with forceps and washed three times with Barth's saline. Then 60 ml collagenase solution (76 mg Sigma type XX collagenase dissolved in Ca^2+-free Barth saline) was added and the oocyte containing mass was shaken for 2 hours at 5° C. After washing three times with Ca^2+-free Barth's and then three times with Barth's solution containing calcium, the oocytes were evaluated under a stereo microscope. Healthy stage 5 oocytes were transferred into new dishes and incubated in 17° C. for overnight. Oocytes were injected with either 50 nl of alpha7 mRNA solution (20 ng) or 50 nl of a mixture of alpha4 and beta2 (1:1, 10 ng) mRNA, using a Drummond Nanoject II Auto-Injector. The cells were cultured in Barth's saline at 17° C. for 5-16 days, with daily changes in the saline. […] Membrane currents were recorded with an AxoClamp-2 (Axon Instruments, Union City, Calif.), filtered at 10 kHz and sampled at 5 kHz. […]

[4] = listed as 3-(((2S,5S)-1,5-Dimethylpyrrolidine-2-yl)methoxy)-pyridine

T1 sequence (P43681 29-627 limits assumed): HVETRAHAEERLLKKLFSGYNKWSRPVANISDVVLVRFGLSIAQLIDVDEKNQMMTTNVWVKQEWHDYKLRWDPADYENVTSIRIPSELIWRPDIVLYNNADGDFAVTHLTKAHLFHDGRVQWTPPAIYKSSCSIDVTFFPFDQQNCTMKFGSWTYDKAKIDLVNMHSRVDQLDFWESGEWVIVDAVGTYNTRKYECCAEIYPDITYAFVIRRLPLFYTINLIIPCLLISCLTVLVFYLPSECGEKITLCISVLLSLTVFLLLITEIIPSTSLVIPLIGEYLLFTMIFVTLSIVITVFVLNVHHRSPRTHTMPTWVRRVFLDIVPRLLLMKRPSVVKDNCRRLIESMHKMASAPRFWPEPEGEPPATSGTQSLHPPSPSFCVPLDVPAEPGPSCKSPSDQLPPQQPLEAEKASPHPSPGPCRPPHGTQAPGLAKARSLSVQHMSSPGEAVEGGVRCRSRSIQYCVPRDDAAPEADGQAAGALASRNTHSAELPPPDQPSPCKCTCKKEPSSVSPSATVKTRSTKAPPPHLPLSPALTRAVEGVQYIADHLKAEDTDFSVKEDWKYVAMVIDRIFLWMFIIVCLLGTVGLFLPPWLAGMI
T1 sequence (P17787 26-502): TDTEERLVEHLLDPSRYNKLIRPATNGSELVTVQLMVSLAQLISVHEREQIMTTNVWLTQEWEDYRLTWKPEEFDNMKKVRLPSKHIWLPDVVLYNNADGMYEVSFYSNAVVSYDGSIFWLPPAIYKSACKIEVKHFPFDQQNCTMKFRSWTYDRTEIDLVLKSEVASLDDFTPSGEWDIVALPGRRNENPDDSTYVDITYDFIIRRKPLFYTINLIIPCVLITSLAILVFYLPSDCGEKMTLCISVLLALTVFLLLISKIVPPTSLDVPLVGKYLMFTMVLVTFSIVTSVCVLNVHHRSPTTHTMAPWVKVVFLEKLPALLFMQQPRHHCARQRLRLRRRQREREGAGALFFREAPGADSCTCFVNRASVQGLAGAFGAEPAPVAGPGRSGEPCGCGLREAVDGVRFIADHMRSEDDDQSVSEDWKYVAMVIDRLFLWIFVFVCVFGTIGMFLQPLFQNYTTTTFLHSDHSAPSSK
T2 sequence (P36544 23-502): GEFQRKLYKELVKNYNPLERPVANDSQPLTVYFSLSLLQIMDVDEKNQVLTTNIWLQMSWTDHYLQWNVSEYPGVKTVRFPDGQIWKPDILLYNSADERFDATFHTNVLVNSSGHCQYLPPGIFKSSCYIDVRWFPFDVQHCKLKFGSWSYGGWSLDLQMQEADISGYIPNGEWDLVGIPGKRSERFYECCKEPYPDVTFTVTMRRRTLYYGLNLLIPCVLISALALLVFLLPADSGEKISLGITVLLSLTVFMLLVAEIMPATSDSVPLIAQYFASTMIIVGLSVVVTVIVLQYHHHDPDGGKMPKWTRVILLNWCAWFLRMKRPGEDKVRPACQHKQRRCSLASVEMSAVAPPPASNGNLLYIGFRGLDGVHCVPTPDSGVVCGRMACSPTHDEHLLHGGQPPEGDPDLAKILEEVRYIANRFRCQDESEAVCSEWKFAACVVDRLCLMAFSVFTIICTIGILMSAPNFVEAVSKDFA

**Q.** For C[C@@H]1CC[C@@H](COc2cccnc2)N1C [3-(((2S,5R)-1,5-Dimethylpyrrolidin-2-yl)methoxy)pyridine], which “agonist activity/potency on α4β2 receptors (in words)” value (α4β2 receptors) is on record?
**A.** essentially no agonistic activity

**Q.** With CN1CCC[C@H]1c1cccnc1 [nicotine, (S)-nicotine] as the molecule, how does the “alpha7 receptors less sensitive to nicotine relative to alpha4beta2 nAChRs” value [1] read?
**A.** at least 50 ×

**Q.** With CN1CCC1c1cccnc1 (stereo not drawn) [trans-3-(1-methylazetidin-2-yl)pyridine] as the molecule, how does the “agonist activity/potency on α7 receptors (in words)” value (α7 receptors) read?
**A.** more potent strong agonist

**Q.** And the “agonist activity/potency on α4β2 receptors (in words)” value (α4β2 receptors)?
**A.** more potent strong agonist

**Q.** Which “displacement of radiolabeled methylcarbamylcholine binding (in words)” value [2] does the source give for CN1CCCC1(C)c1cccnc1 (racemic) [2′ methyl-nicotine, (±)-2′-Methylnicotine] here?
**A.** displace the binding

**Q.** What about the “agonist activity/potency on α7 receptors (in words)” value (α7 receptors) of the same molecule?
**A.** excellent agonist activity

**Q.** And the “increase in potency at α7 nAChR relative to nicotine” value (α7 receptors; FIG. 2.10)?
**A.** 6.7 fold

**Q.** And the “agonist activity/potency on α4β2 receptors (in words)” value (α4β2 receptors)?
**A.** excellent agonist activity

**Q.** For CCC1(c2cccnc2)CCCN1C (racemic) [2′-ethyl-nicotine, (±)-2′-Ethylnicotine], which “displacement of radiolabeled methylcarbamylcholine binding (in words)” value [2] is on record?
**A.** displace the binding

**Q.** What does the source list for C[C@H]1CC[C@@H](COc2cccnc2)N1C [3-(((2S,5S)-1,5-Dimethylpyrrolidin-2-yl)methoxy)pyridine]?
**A.** agonist activity/potency on α7 receptors (in words) (α7 receptors; [4]): high potency; also recorded: low activity; agonist activity/potency on α4β2 receptors (in words) (α4β2 receptors): essentially no agonistic activity; agonist activity/potency on α4β2 receptors (in words) (α4β2 receptors; [4]): low activity

**Q.** With C[C@H]1C[C@H](c2cccnc2)N1C (relative stereo) [Trans-3-(1,4-Dimethylazetidin-2-yl)pyridine] as the molecule, how does the “potency of trans- versus cis-diastereomers on α4β2 receptors (in words)” value (α4β2 receptors; oocytes, FIG. 3.4) read?
**A.** significantly more potent than the cis-diastereomers

**Q.** Which “response of α6/α3 chimera/β2 receptors (in words)” value [3] does the source give for C[C@H]1CC[C@@H](c2cccnc2)N1C [5′ Cis-Me-Nic] here?
**A.** essentially identical manner

**Q.** What about the “agonist activity/potency on α4β2 receptors (in words)” value (α4β2 receptors) of the same molecule?
**A.** inactive

**Q.** Which “response of α6/α3 chimera/β2 receptors (in words)” value [3] does the source give for C[C@@H]1CC[C@@H](c2cccnc2)N1C [5′ Trans-Me-Nic] here?
**A.** essentially identical manner

**Q.** What about the “agonist activity/potency on α4β2 receptors (in words)” value (α4β2 receptors) of the same molecule?
**A.** inactive
